The NIST ThermoML archive (doi:10.1016/j.fluid.2012.11.011)

Test: osmotic coefficient (dimensionless); mn = molality of the nth substance listed, in mol/kg
Conditions: 298.15 K, Liquid, isopiestic method

CC1(C)S[C@@H]2[C@H](NC(=O)Cc3ccccc3)C(=O)N2[C@H]1C(=O)[O-].[Na+] + O
Conditions | osmotic coefficient
2.442 kPa, m1 = 9.082 | 0.796
2.452 kPa, m1 = 9.136 | 0.779
2.606 kPa, m1 = 7.249 | 0.749
2.623 kPa, m1 = 7.416 | 0.708
2.757 kPa, m1 = 5.709 | 0.678
2.901 kPa, m1 = 3.775 | 0.652
2.919 kPa, m1 = 3.9 | 0.585
2.93 kPa, m1 = 3.429 | 0.636
2.93 kPa, m1 = 3.558 | 0.612
2.958 kPa, m1 = 3.303 | 0.582
2.986 kPa, m1 = 2.627 | 0.63
2.989 kPa, m1 = 2.675 | 0.61
2.989 kPa, m1 = 2.704 | 0.603
3.002 kPa, m1 = 2.483 | 0.608
3.006 kPa, m1 = 2.489 | 0.592
3.007 kPa, m1 = 2.326 | 0.629
3.007 kPa, m1 = 2.366 | 0.62
3.009 kPa, m1 = 2.334 | 0.618
3.033 kPa, m1 = 2.001 | 0.612
3.049 kPa, m1 = 1.757 | 0.616
3.05 kPa, m1 = 1.757 | 0.61
3.068 kPa, m1 = 1.28 | 0.705
3.089 kPa, m1 = 1.073 | 0.672
3.091 kPa, m1 = 1.085 | 0.647
3.123 kPa, m1 = 0.457 | 0.903
3.126 kPa, m1 = 0.4044 | 0.966
3.17 kPa, m1 = 0 | 1

CC1(C)S[C@@H]2[C@H](NC(=O)[C@H](N)c3ccccc3)C(=O)N2[C@H]1C(=O)[O-].[Na+] [Ampicillin Sodium] + O
Conditions | osmotic coefficient
2.467 kPa, m1 = 7.468 | 0.93
2.565 kPa, m1 = 6.773 | 0.867
2.654 kPa, m1 = 5.991 | 0.822
2.747 kPa, m1 = 5.699 | 0.696
2.901 kPa, m1 = 4.439 | 0.553
2.908 kPa, m1 = 4.261 | 0.562
2.926 kPa, m1 = 4.103 | 0.54
2.942 kPa, m1 = 3.839 | 0.538
2.982 kPa, m1 = 3.301 | 0.513
3.005 kPa, m1 = 2.932 | 0.504
3.006 kPa, m1 = 2.958 | 0.499
3.008 kPa, m1 = 2.867 | 0.506
3.011 kPa, m1 = 2.855 | 0.498
3.031 kPa, m1 = 2.397 | 0.519
3.032 kPa, m1 = 2.398 | 0.514
3.052 kPa, m1 = 1.912 | 0.548
3.066 kPa, m1 = 1.699 | 0.546
3.076 kPa, m1 = 1.476 | 0.563
3.079 kPa, m1 = 1.392 | 0.578
3.081 kPa, m1 = 1.369 | 0.575
3.098 kPa, m1 = 1.134 | 0.564
3.099 kPa, m1 = 1.093 | 0.576
3.102 kPa, m1 = 0.9835 | 0.612
3.103 kPa, m1 = 0.9725 | 0.612
3.103 kPa, m1 = 1.029 | 0.578
3.104 kPa, m1 = 1.015 | 0.576
3.111 kPa, m1 = 0.8951 | 0.586
3.113 kPa, m1 = 0.8284 | 0.612
3.113 kPa, m1 = 0.8511 | 0.591
3.118 kPa, m1 = 0.7369 | 0.617
3.119 kPa, m1 = 0.6767 | 0.67
3.119 kPa, m1 = 0.6922 | 0.651
3.119 kPa, m1 = 0.7007 | 0.644
3.119 kPa, m1 = 0.7507 | 0.597
3.13 kPa, m1 = 0.5215 | 0.672
3.131 kPa, m1 = 0.525 | 0.654
3.131 kPa, m1 = 0.5325 | 0.648
3.132 kPa, m1 = 0.47 | 0.72
3.133 kPa, m1 = 0.4627 | 0.704
3.139 kPa, m1 = 0.3871 | 0.705
3.144 kPa, m1 = 0.3032 | 0.75
3.145 kPa, m1 = 0.3044 | 0.714
3.155 kPa, m1 = 0.1575 | 0.856
3.162 kPa, m1 = 0.0754 | 0.885
3.17 kPa, m1 = 0 | 1
